Data from the NIST ThermoML archive (doi:10.1021/acs.jced.7b01053).
Where “and” joins values, the source holds several entries; their conditions need not be identical. Identical values can stand only once.

Test: mn = molality of the nth substance listed, in mol/kg
Conditions: 293 K, 100 kPa, Liquid, Alternating current cell with electrodes

CCCCC(=O)[O-].C[NH2+]CCO [2-hydroxy-N-methylethanaminium pentanoate] + O
Conditions | electrical conductivity [S/m]
m1 = 0.01138 | 0.049
m1 = 0.01396 | 0.062
m1 = 0.02431 | 0.098
m1 = 0.02742 | 0.113
m1 = 0.03923 | 0.149
m1 = 0.0421 | 0.165
m1 = 0.05224 | 0.191
m1 = 0.05579 | 0.209
m1 = 0.0607 | 0.269
m1 = 0.06705 | 0.238
m1 = 0.08075 | 0.293
m1 = 0.08328 | 0.31
m1 = 0.09553 | 0.335
m1 = 0.09605 | 0.33
m1 = 0.1092 | 0.375
m1 = 0.1095 | 0.408
m1 = 0.1224 | 0.445
m1 = 0.124 | 0.416
m1 = 0.1358 | 0.479
m1 = 0.1372 | 0.449
m1 = 0.1484 | 0.513
m1 = 0.1505 | 0.485
m1 = 0.1608 | 0.544
m1 = 0.1632 | 0.498
m1 = 0.1727 | 0.572
m1 = 0.1759 | 0.527
m1 = 0.1844 | 0.597
m1 = 0.1879 | 0.551
m1 = 0.1947 | 0.612
m1 = 0.1999 | 0.578
m1 = 0.2059 | 0.635
m1 = 0.2113 | 0.602
m1 = 0.2164 | 0.656
m1 = 0.2226 | 0.62
m1 = 0.226 | 0.677
m1 = 0.2329 | 0.642
m1 = 0.2359 | 0.697
m1 = 0.2427 | 0.663
m1 = 0.2451 | 0.709
m1 = 0.2523 | 0.682
m1 = 0.2541 | 0.727
m1 = 0.262 | 0.701
m1 = 0.2625 | 0.744
m1 = 0.2703 | 0.76
m1 = 0.2709 | 0.717
m1 = 0.2783 | 0.776
m1 = 0.2797 | 0.735
m1 = 0.2853 | 0.79
m1 = 0.2882 | 0.75
m1 = 0.2929 | 0.804
m1 = 0.2964 | 0.766
m1 = 0.2998 | 0.818
m1 = 0.304 | 0.781
m1 = 0.3065 | 0.83
m1 = 0.3114 | 0.794
m1 = 0.3129 | 0.842
m1 = 0.3184 | 0.808
m1 = 0.3191 | 0.853
m1 = 0.3249 | 0.868
m1 = 0.3255 | 0.819
m1 = 0.3307 | 0.88
m1 = 0.3317 | 0.834
m1 = 0.336 | 0.893
m1 = 0.3378 | 0.847
m1 = 0.3413 | 1.04
m1 = 0.3437 | 0.858
m1 = 0.3493 | 0.87
m1 = 0.3546 | 0.882

CCC(=O)[O-].C[NH2+]CCO [2-hydroxy-N-methylethanaminium propionate] + O
Conditions | electrical conductivity [S/m]
m1 = 0.01487 | 0.066
m1 = 0.0155 | 0.073
m1 = 0.03159 | 0.133
m1 = 0.03183 | 0.139
m1 = 0.04881 | 0.195
m1 = 0.0489 | 0.202
m1 = 0.06492 | 0.266
m1 = 0.06527 | 0.277
m1 = 0.08046 | 0.329
m1 = 0.08214 | 0.323
m1 = 0.09748 | 0.384
m1 = 0.09889 | 0.378
m1 = 0.1136 | 0.436
m1 = 0.1159 | 0.427
m1 = 0.1305 | 0.487
m1 = 0.1324 | 0.476
m1 = 0.1464 | 0.536
m1 = 0.1495 | 0.523
m1 = 0.1622 | 0.604
m1 = 0.1651 | 0.568
m1 = 0.1776 | 0.648
m1 = 0.1814 | 0.613
m1 = 0.1935 | 0.69
m1 = 0.1966 | 0.654
m1 = 0.2081 | 0.727
m1 = 0.2121 | 0.694
m1 = 0.223 | 0.764
m1 = 0.2264 | 0.702
m1 = 0.237 | 0.798
m1 = 0.2408 | 0.721
m1 = 0.25 | 0.829
m1 = 0.2542 | 0.723
m1 = 0.2632 | 0.872
m1 = 0.2677 | 0.786
m1 = 0.2756 | 0.908
m1 = 0.28 | 0.814
m1 = 0.2879 | 0.933
m1 = 0.2922 | 0.834
m1 = 0.2994 | 0.957
m1 = 0.3036 | 0.86
m1 = 0.3106 | 0.98
m1 = 0.3149 | 0.906
m1 = 0.3211 | 1
m1 = 0.3255 | 0.923
m1 = 0.3317 | 1.02
m1 = 0.3357 | 0.946
m1 = 0.3415 | 1.04
m1 = 0.3454 | 0.967
m1 = 0.3511 | 1.06
m1 = 0.355 | 0.987
m1 = 0.3602 | 1.08
m1 = 0.364 | 1.01
m1 = 0.3691 | 1.09
m1 = 0.3726 | 1.03
m1 = 0.3774 | 1.11
m1 = 0.3808 | 1.05
m1 = 0.3856 | 1.13
m1 = 0.3885 | 1.05
m1 = 0.3933 | 1.15
m1 = 0.396 | 1.07
m1 = 0.4009 | 1.17
m1 = 0.4032 | 1.09
m1 = 0.4079 | 1.19
m1 = 0.4098 | 1.09
m1 = 0.4148 | 1.21
m1 = 0.4165 | 1.11
m1 = 0.4227 | 1.12

CCC(=O)[O-].[NH3+]CCO [2-hydroxyethan-1-aminium propionate] + O
Conditions | electrical conductivity
m1 = 0.01786 | 0.107 S/m
m1 = 0.022 | 0.116 S/m
m1 = 0.03491 | 0.198 S/m
m1 = 0.04447 | 0.218 S/m
m1 = 0.05416 | 0.312 S/m
m1 = 0.06841 | 0.338 S/m
m1 = 0.0728 | 0.4 S/m
m1 = 0.09126 | 0.43 S/m
m1 = 0.0929 | 0.485 S/m
m1 = 0.1121 | 0.574 S/m
m1 = 0.1137 | 0.521 S/m
m1 = 0.1322 | 0.658 S/m
m1 = 0.1373 | 0.612 S/m
m1 = 0.1504 | 0.74 S/m
m1 = 0.1594 | 0.695 S/m
m1 = 0.1692 | 0.821 S/m
m1 = 0.1822 | 0.78 S/m
m1 = 0.188 | 0.897 S/m
m1 = 0.2038 | 0.845 S/m
m1 = 0.2067 | 0.982 S/m
m1 = 0.2263 | 0.921 S/m
m1 = 0.2328 | 1.08 S/m
m1 = 0.2472 | 0.991 S/m
m1 = 0.2532 | 1.16 S/m
m1 = 0.268 | 1.06 S/m
m1 = 0.2729 | 1.24 S/m
m1 = 0.2877 | 1.12 S/m
m1 = 0.2905 | 1.3 S/m
m1 = 0.3074 | 1.18 S/m and 1.37 S/m
m1 = 0.3237 | 1.43 S/m
m1 = 0.3251 | 1.24 S/m
m1 = 0.3388 | 1.48 S/m
m1 = 0.3427 | 1.29 S/m
m1 = 0.3534 | 1.53 S/m
m1 = 0.3594 | 1.34 S/m
m1 = 0.3669 | 1.58 S/m
m1 = 0.3755 | 1.39 S/m
m1 = 0.3798 | 1.63 S/m
m1 = 0.3905 | 1.43 S/m
m1 = 0.3917 | 1.67 S/m
m1 = 0.4032 | 1.71 S/m
m1 = 0.4055 | 1.48 S/m
m1 = 0.4138 | 1.74 S/m
m1 = 0.4195 | 1.51 S/m
m1 = 0.424 | 1.78 S/m
m1 = 0.4334 | 1.55 S/m
m1 = 0.4465 | 1.59 S/m
m1 = 0.4591 | 1.62 S/m
m1 = 0.4709 | 1.65 S/m
m1 = 0.4825 | 1.67 S/m
m1 = 0.5351 | 1.82 S/m
m1 = 0.5473 | 1.85 S/m
m1 = 0.5594 | 1.89 S/m
m1 = 0.5705 | 1.93 S/m
